Test results from article PMC6979384, “Characterization of the plant homeodomain (PHD) reader family for their histone tail interactions” (Epigenetics & Chromatin, 2020).

Legend:
Assay in all cases: Histone peptide microarray
Type in all cases: binding, human
PHF21A = details: GST-tagged PHF21A; histone peptide array; arrays performed twice, n of 4
In short: (§1)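 Mean ± SD of 4 replicate array intensities; GST-PHD finger at 0.5 μM against 293 PTM-bearing histone peptides.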

BPTF (PB) = details: GST-tagged BPTF (PB = PHD + Bromodomain); histone peptide array; arrays performed twice, n of 4
In short: as §1

PHF13 = details: GST-tagged PHF13; histone peptide array; arrays performed twice, n of 4
In short: as §1

RAG2 = details: GST-tagged RAG2; histone peptide array; arrays performed twice, n of 4
In short: as §1

KDM4C (TTP) = details: GST-tagged KDM4C (TTP = Tandem Tudor domain + PHD); histone peptide array; arrays performed twice, n of 4
In short: as §1

KDM5A (3) = details: GST-tagged KDM5A (3); histone peptide array; arrays performed twice, n of 4
In short: as §1

SP140L = details: GST-tagged SP140L; histone peptide array; arrays performed twice, n of 4
In short: as §1

CHD5 (PPCC) = details: GST-tagged CHD5 (PPCC = Dual PHD + Dual Chromodomain); histone peptide array; arrays performed twice, n of 4
In short: as §1

MORC3 (CW) = details: GST-tagged MORC3 (CW = CW-type Zn-finger); histone peptide array; arrays performed twice, n of 4
In short: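 Binding read as mean relative signal from 4 replicates; microarray held 293 synthetic histone peptides with single or combinatorial PTMs. Each GST-tagged PHD reader was applied at 0.5 μM using the optimized Petell protocol.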

ING4 = details: GST-tagged ING4; histone peptide array; arrays performed twice, n of 4
In short: as §1

KDM5B (1) = details: GST-tagged KDM5B (1); histone peptide array; arrays performed twice, n of 4
In short: as §1

DIDO1 = details: GST-tagged DIDO1; histone peptide array; arrays performed twice, n of 4
In short: as §1

ING5 = details: GST-tagged ING5; histone peptide array; arrays performed twice, n of 4
In short: as §1

AIRE (PP) = details: GST-tagged AIRE (PP); histone peptide array; arrays performed twice, n of 4
In short: as §1

ING2 = details: GST-tagged ING2; histone peptide array; arrays performed twice, n of 4
In short: as §1

ING3 = details: GST-tagged ING3; histone peptide array; arrays performed twice, n of 4
In short: as §1

TRIM66 (PB) = details: GST-tagged TRIM66 (PB = PHD + Bromodomain); histone peptide array; arrays performed twice, n of 4
In short: as §1

PHF8 = details: GST-tagged PHF8; histone peptide array; arrays performed twice, n of 4
In short: as §1

KDM7A = details: GST-tagged KDM7A; histone peptide array; arrays performed twice, n of 4
In short: as §1

TAF3 = details: GST-tagged TAF3; histone peptide array; arrays performed twice, n of 4
In short: as §1

CHD5 (PCC) = details: GST-tagged CHD5 (PCC = PHD + Dual Chromodomain); histone peptide array; arrays performed twice, n of 4
In short: as §1

KDM5B (3) = details: GST-tagged KDM5B (3); histone peptide array; arrays performed twice, n of 4
In short: as §1

BAZ2B = details: GST-tagged BAZ2B; histone peptide array; arrays performed twice, n of 4
In short: as §1

PHF23 = details: GST-tagged PHF23; histone peptide array; arrays performed twice, n of 4
In short: as §1

PHF2 = details: GST-tagged PHF2; histone peptide array; arrays performed twice, n of 4
In short: as §1

DPF2 (PPC2W2) = details: GST-tagged DPF2 (PPC2W2 = Dual PHD + C2W2-type Zn-finger); histone peptide array; arrays performed twice, n of 4
In short: as §1

MLL5 = details: GST-tagged MLL5; histone peptide array; arrays performed twice, n of 4
In short: as §1

ING1 = details: GST-tagged ING1; histone peptide array; arrays performed twice, n of 4
In short: as §1

PHRF1 (RP) = details: GST-tagged PHRF1 (RP); histone peptide array; arrays performed twice, n of 4
In short: as §1

CHD4 (PPCC) = details: GST-tagged CHD4 (PPCC = Dual PHD + Dual Chromodomain); histone peptide array; arrays performed twice, n of 4
In short: as §1

KDM5A (1) = details: GST-tagged KDM5A (1); histone peptide array; arrays performed twice, n of 4
In short: as §1

Row | Substance | Array Heatmap signal, PHF21A (PHF21A) | Array Heatmap signal, BPTF (PB) (BPTF (PB)) | Array Heatmap signal, PHF13 (PHF13) | Array Heatmap signal, RAG2 (RAG2) | Array Heatmap signal, KDM4C (TTP) (KDM4C (TTP)) | Array Heatmap signal, KDM5A (3) (KDM5A (3)) | Array Heatmap signal, SP140L (SP140L) | Array Heatmap signal, CHD5 (PPCC) (CHD5 (PPCC)) | Array Heatmap signal, MORC3 (CW) (MORC3 (CW)) | Array Heatmap signal, ING4 (ING4) | Array Heatmap signal, KDM5B (1) (KDM5B (1)) | Array Heatmap signal, DIDO1 (DIDO1) | Array Heatmap signal, ING5 (ING5) | Array Heatmap signal, AIRE (PP) (AIRE (PP)) | Array Heatmap signal, ING2 (ING2) | Array Heatmap signal, ING3 (ING3) | Array Heatmap signal, TRIM66 (PB) (TRIM66 (PB)) | Array Heatmap signal, PHF8 (PHF8) | Array Heatmap signal, KDM7A (KDM7A) | Array Heatmap signal, TAF3 (TAF3) | further results
1 | H3Cit2 + K4ac + K9ac + K14ac + K18ac: H3 1-20 | 0.4553 | 0.3441 | 0.6115 | 0.246 | 0.4985 | 0.3736 | 0.3325 | 0.5544 | 0.3458 | 0.466 | 0.646 | 0.6333 | 0.342 | 0.5046 | 0.5962 | 0.4982 | 0.5899 | 0.3508 | 0.3757 | 0.2461 | Array Heatmap signal, CHD5 (PCC) (CHD5 (PCC)): 0.8259; Array Heatmap signal, KDM5B (3) (KDM5B (3)): 0.5221; Array Heatmap signal, BAZ2B (BAZ2B): 0.5241; Array Heatmap signal, PHF23 (PHF23): 0.5298; Array Heatmap signal, PHF2 (PHF2): 0.465; Array Heatmap signal, DPF2 (PPC2W2) (DPF2 (PPC2W2)): 0.6168; Array Heatmap signal, MLL5 (MLL5): 0.5262; Array Heatmap signal, ING1 (ING1): 0.5011; Array Heatmap signal, PHRF1 (RP) (PHRF1 (RP)): 0.4027; Array Heatmap signal, CHD4 (PPCC) (CHD4 (PPCC)): 0.5849; Array Heatmap signal, KDM5A (1) (KDM5A (1)): 0.4761
2 | H3Cit2 + K4me2: H3 1-20 | 0.4507 | 0.3387 | 0.6272 | 0.6011 | 0.4533 | 0.6902 | 0.366 | 0.5328 | 0.7482 | 0.4531 | 0.6545 | 0.7273 | 0.3412 | 0.3883 | 0.6329 | 0.4571 | 0.6817 | 0.4758 | 0.3325 | 0.4779 | Array Heatmap signal, CHD5 (PCC) (CHD5 (PCC)): 0.7759; Array Heatmap signal, KDM5B (3) (KDM5B (3)): 0.6867; Array Heatmap signal, BAZ2B (BAZ2B): 0.45; Array Heatmap signal, PHF23 (PHF23): 0.5864; Array Heatmap signal, PHF2 (PHF2): 0.7165; Array Heatmap signal, DPF2 (PPC2W2) (DPF2 (PPC2W2)): 0.6839; Array Heatmap signal, MLL5 (MLL5): 0.5743; Array Heatmap signal, ING1 (ING1): 0.5902; Array Heatmap signal, PHRF1 (RP) (PHRF1 (RP)): 0.4884; Array Heatmap signal, CHD4 (PPCC) (CHD4 (PPCC)): 0.5675; Array Heatmap signal, KDM5A (1) (KDM5A (1)): 0.4439
3 | H3Cit2 + K4me3 + K9ac + K14ac + K18ac: H3 1-20 | 0.4881 | 0.3451 | 0.5903 | 0.3489 | 0.4327 | 0.5236 | 0.3551 | 0.5144 | 0.4875 | 0.4376 | 0.5319 | 0.8494 | 0.327 | 0.3964 | 0.6235 | 0.4771 | 0.557 | 0.4072 | 0.3427 | 0.287 | Array Heatmap signal, CHD5 (PCC) (CHD5 (PCC)): 0.7154; Array Heatmap signal, KDM5B (3) (KDM5B (3)): 0.4827; Array Heatmap signal, BAZ2B (BAZ2B): 0.483; Array Heatmap signal, PHF23 (PHF23): 0.5313; Array Heatmap signal, PHF2 (PHF2): 0.7451; Array Heatmap signal, DPF2 (PPC2W2) (DPF2 (PPC2W2)): 0.6832; Array Heatmap signal, MLL5 (MLL5): 0.6331; Array Heatmap signal, ING1 (ING1): 0.5664; Array Heatmap signal, PHRF1 (RP) (PHRF1 (RP)): 0.4303; Array Heatmap signal, CHD4 (PPCC) (CHD4 (PPCC)): 0.6008; Array Heatmap signal, KDM5A (1) (KDM5A (1)): 0.4209
